Reference: article PMC12005787, “Synthetic Lethality of SHP2 and XIAP Suppresses Proliferation and Metastasis in KRAS‐mutant Nonsmall Cell Lung Cancer” (Advanced Science, 2025)
Like-named read-outs stand apart in the source and are kept apart here.

What was measured:
[1] = tested on: MIG‐6 and SPRY2 in NCI‐H2122 cells; experiment: MIG-6 and SPRY2 protein expression (western blotting); type: cell-based, human; details: 24 h
Procedure: Transwell, and the subsequent experiments were performed as described in Cell migration […]
After given treatment, cells were lysed by ice bath with radio-immunoprecipitation assay (RIPA) buffer containing 1% phenylmethylsulphonyl fluoride (PMSF), and the supernatant was collected by centrifugation, and the protein concentration was subsequently determined using a BCA Protein Assay Kit. Depending on the molecular weight of the proteins, different concentrations of sodium dodecyl-sulfate polyacrylamide gel electrophoresis (SDS-PAGE) separator gels were prepared for protein electrophoresis. Equal amounts of proteins were sampled and subjected to SDS-PAGE gel electrophoresis; at the end of electrophoresis, the proteins were transferred to nitrocellulose (NC) membranes. The NC membrane was blocked with 5% skim milk and covered with a specific primary antibody overnight at 4 °C, in which the primary antibody was diluted at a ratio of 1:500–1:5000. The NC membrane was […]

[2] = tested on: SW620 cells; experiment: Cell viability assay (CCK-8); type: cell-based; details: Homo sapiens, SW-620
Procedure: (§1) supplies are listed in Supplementary Table S5. The relevant reagents for protein extraction from Escherichia coli are listed in Supplementary Table S6. Inhibitory effects of embelin on KRAS-mutant and wild-type cells are listed in Supplementary Table S7.
(§2) For the adherent cell viability assay, cells in the logarithmic growth phase were seeded in 96-well culture plates at a density of 5×103 well-1 and incubated overnight. Diluted compounds or DMSO were added, or specific treatments were incubated at 37 °C and 5% CO2 for 24 h or 48 h. Cell viability was determined using CCK-8 or CellLightTM Cell Viability Assay Kit, according to the manufacturer's protocol. The luminescence signals of the treated samples were normalized to those of the DMSO group. […]

[3] = tested on: HCC827 cells; experiment: Cell viability assay (CCK-8); type: cell-based; details: Homo sapiens; HCC827, RAS-wild type, 24 h
Procedure: as §1, §2

[4] = tested on: NCI-H2122, A549, and NCI-H1944 cells; experiment: Cell senescence β-galactosidase staining; type: cell-based, human; details: A549, NCI‐H2122, and NCI‐H1944 cells
Procedure: Cell senescence β-galactosidase staining
NCI-H2122, A549, and NCI-H1944 cells in the logarithmic growth phase were seeded into 48-well plates and cultured overnight. The supernatant was aspirated and fresh serum-free (0%), low-serum (3%), or regular serum (10%) medium with different drugs was added for 48 h. When the supernatant was discarded, β-galactosidase staining fixation fluid were added for 15 min and β-galactosidase staining solution were imported overnight at 37 ℃.
Finally, the staining results were recorded using an inverted microscope.

[5] = molecular target: T1, His‐ΔSHP2 (Homo sapiens, UniProt Q06124); experiment: Enzymatic inhibition analysis (Michaelis-Menten, Lineweaver-Burk); type: biochemical
T1 construct: His‐ΔSHP2, encompassing the peptide from amino acids 205–593 retaining PTP activity; His; made in house; host or cells: E. coli
T1 sequence (Q06124 205-593): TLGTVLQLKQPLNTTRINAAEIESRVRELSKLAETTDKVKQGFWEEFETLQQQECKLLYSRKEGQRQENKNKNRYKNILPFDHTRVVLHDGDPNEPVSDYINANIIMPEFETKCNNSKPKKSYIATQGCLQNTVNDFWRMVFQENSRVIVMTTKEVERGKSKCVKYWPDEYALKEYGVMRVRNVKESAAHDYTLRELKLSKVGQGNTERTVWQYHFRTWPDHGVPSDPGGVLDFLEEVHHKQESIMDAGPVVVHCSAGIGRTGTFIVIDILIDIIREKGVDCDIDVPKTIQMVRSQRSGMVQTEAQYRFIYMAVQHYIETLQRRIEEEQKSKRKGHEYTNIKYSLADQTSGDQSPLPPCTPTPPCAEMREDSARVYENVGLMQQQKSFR
Procedure: A Michaelis‐Menten model and Lineweaver‐Burk plot of SHP2 inhibition by embelin were established. In brief, enzyme kinetics of SHP2 varied with the concentrations of substrate DiFMUP and embelin, concentrations of embelin were selected at 0, 10, and 20 µM, and concentrations of DiFMUP were selected at 10, 20, 40, 80, and 160 µM. Recombinant His‐ΔSHP2 was preincubated for 30 min with embelin or DMSO at various concentrations in the absence of substrate and then assayed for enzymatic activity at different times as mentioned above.

[6] = tested on: KRAS‐mutant NSCLC cells in 3D culture; experiment: Cell proliferation in 3D cell culture (ATP chemiluminescence); type: cell-based
Procedure: supplies are listed in Supplementary Table S5. […]
For the adherent cell viability assay, cells in the logarithmic growth phase were seeded in 96-well culture plates at a density of 5×103 well-1 and incubated overnight. Diluted compounds or DMSO were added, or specific treatments were incubated at 37 °C and 5% CO2 for 24 h or 48 h. Cell viability was determined using CCK-8 or CellLightTM Cell Viability Assay Kit, according to the manufacturer's protocol. The luminescence signals of the treated samples were normalized to those of the DMSO group.
For spherical cell viability assays, cells in the logarithmic growth phase were inoculated ata density of 4×10^3 well-1 into 96-well spherical cell microplates and incubated at 37 °C, 5% CO2 for 24 h or 48 h. Cell viability was measured using the CellTiter-Glo® Luminescent Cell Viability 3D Cell Viability Assay Kit, according to the manufacturer’s protocol. The remaining steps were the same as those described above. […]
Figure S7. Targeting SHP2 and XIAP produces a synthetic lethal effect. (A) Effects of NSC-87877 on cell viability of A549 and NCI-H2122 cells after 24 and 48 h were determined using the CCK-8. Bars, ± SEM. […]
tailed Student’s t-test).(K) Effects of SHP099 and GDC-0152 separately and in combination with […] on the cell viability of human KRAS-WT and -mutant cells were assessed using a colony formation assay. […]

[7] = embelin 0, 10, 20 µM, DiFMUP 10-160 µM

Structure (SMILES) | expression of MIG‐6 and SPRY2 [1] | IC50 ([2]; SW620, 48 h, read-out: IC50 at 48 h) [µM] | IC50 ([2]; SW620, KRAS G12V, 24 h, read-out: IC50 at 24 h) [µM] | IC50 [3] [µM] | induction of cell senescence [4] | type of inhibition of SHP2 [5] | Km of ΔSHP2 protein after addition of compound [5, 7] | Vm of ΔSHP2 protein after addition of compound [5, 7] | effect on cell proliferation in 3D cell culture [6]
CCCCCCCCCCCC1=C(O)C(=O)C=C(O)C1=O [Embelin] | significantly promoted the expression | 5.06 ± 0.45 | 18.6 ± 0.4 | 4.95 ± 0.28 | induced senescence | noncompetitive inhibitor | unchanged | decreased | –
CC1(N)CCN(c2cnc(-c3cccc(Cl)c3Cl)c(N)n2)CC1 [SHP099] | – | – | – | – | – | – | – | – | partially inhibited cell proliferation
